Results published in ChEMBL document CHEMBL1201862, “PubChem BioAssay data set” (2004).
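Values below derive from 48-hour exposures of cells grown in 96-well plates, with endpoints linearly interpolated between the two concentrations bracketing the appropriate inhibition level. The concentration for 50% growth inhibition is given as GI50.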 Active and inactive are the calls of the source. No stated cut-off is given here; in the data, active = GI50 up to about 1.1 µM and inactive = higher.

Legend:
Assay in all cases: DTP human tumour cell line panel, 48 h
A498 = system: A498
BT-549 = system: BT-549
CAKI-1 = system: CAKI-1
CCRF-CEM = system: CCRF-CEM
DU-145 = system: DU-145
HCC 2998 = system: HCC 2998
HOP-92 = system: HOP-92
Hs-578T = system: Hs-578T
Malme-3M = system: Malme-3M
NCI-H226 = system: NCI-H226
NCI-H460 = system: NCI-H460
NCI/ADR-RES = system: NCI/ADR-RES
OVCAR-4 = system: OVCAR-4
OVCAR-5 = system: OVCAR-5
SF-295 = system: SF-295
SK-MEL-2 = system: SK-MEL-2
SNB-75 = system: SNB-75
T47D = system: T47D
TK-10 = system: TK-10
UACC-62 = system: UACC-62

Question: For c1ccc2sc(SCSc3nc4ccccc4s3)nc2c1, which GI50 (A498) is on record?
Answer: > 100 µM (inactive)

Question: And the GI50 (BT-549)?
Answer: > 100 µM (inactive)

Question: What about the GI50 (CAKI-1) of the same compound?
Answer: > 100 µM (inactive)

Question: And the GI50 (CCRF-CEM)?
Answer: 47.4 µM (inactive)

Question: And the GI50 (DU-145)?
Answer: > 100 µM (inactive)

Question: And the GI50 (HCC 2998)?
Answer: 75.9 µM (inactive)

Question: What about the GI50 (HOP-92) of the same compound?
Answer: > 100 µM (inactive)

Question: What about the GI50 (Hs-578T) of the same compound?
Answer: > 100 µM (inactive)

Question: And the GI50 (Malme-3M)?
Answer: > 100 µM (inactive)

Question: And the GI50 (NCI-H226)?
Answer: > 100 µM (inactive)

Question: And the GI50 (NCI-H460)?
Answer: 22.4 µM (inactive)

Question: What about the GI50 (NCI/ADR-RES) of the same compound?
Answer: 94 µM (inactive)

Question: And the GI50 (OVCAR-4)?
Answer: > 100 µM (inactive)

Question: And the GI50 (OVCAR-5)?
Answer: > 100 µM (inactive)

Question: And the GI50 (SF-295)?
Answer: 43.3 µM (inactive)

Question: And the GI50 (SK-MEL-2)?
Answer: > 100 µM (inactive)

Question: What about the GI50 (SNB-75) of the same compound?
Answer: > 100 µM (inactive)

Question: And the GI50 (T47D)?
Answer: > 100 µM (inactive)

Question: And the GI50 (TK-10)?
Answer: 66.4 µM (inactive)

Question: What about the GI50 (UACC-62) of the same compound?
Answer: 71 µM (inactive)

Question: For C=C(C)C1CC=C(C)C2(C1)OCC(C)(C)C(C)O2 (stereo not given), which GI50 (A498) is on record?
Answer: 14.6 µM (inactive)

Question: And the GI50 (BT-549)?
Answer: 17.3 µM (inactive)

Question: What about the GI50 (CAKI-1) of the same compound?
Answer: 16.3 µM (inactive)

Question: What about the GI50 (CCRF-CEM) of the same compound?
Answer: 24.7 µM (inactive)

Question: And the GI50 (DU-145)?
Answer: 31 µM (inactive)

Question: What about the GI50 (HCC 2998) of the same compound?
Answer: 28.3 µM (inactive)

Question: What about the GI50 (HOP-92) of the same compound?
Answer: 11.2 µM (inactive)

Question: And the GI50 (Hs-578T)?
Answer: 27.9 µM (inactive)

Question: And the GI50 (Malme-3M)?
Answer: 14.5 µM (inactive)

Question: What about the GI50 (NCI-H226) of the same compound?
Answer: 18.3 µM (inactive)

Question: And the GI50 (NCI-H460)?
Answer: 26.1 µM (inactive)

Question: And the GI50 (NCI/ADR-RES)?
Answer: 17.9 µM (inactive)

Question: What about the GI50 (OVCAR-4) of the same compound?
Answer: 17.1 µM (inactive)

Question: And the GI50 (OVCAR-5)?
Answer: 19.3 µM (inactive)

Question: What about the GI50 (SF-295) of the same compound?
Answer: 19.5 µM (inactive)

Question: What about the GI50 (SK-MEL-2) of the same compound?
Answer: 17.8 µM (inactive)

Question: And the GI50 (SNB-75)?
Answer: 22 µM (inactive)

Question: And the GI50 (T47D)?
Answer: 18.4 µM (inactive)

Question: And the GI50 (TK-10)?
Answer: 47.4 µM (inactive)

Question: What about the GI50 (UACC-62) of the same compound?
Answer: 15.8 µM (inactive)

Question: COC(=O)C1Cc2cccc(C)c2C1 (stereo not given) was tested. Which GI50 (A498) did it give?
Answer: > 100 µM (inactive)

Question: What about the GI50 (BT-549) of the same compound?
Answer: > 100 µM (inactive)

Question: And the GI50 (CAKI-1)?
Answer: > 100 µM (inactive)

Question: What about the GI50 (CCRF-CEM) of the same compound?
Answer: 66.5 µM (inactive)

Question: What about the GI50 (DU-145) of the same compound?
Answer: > 100 µM (inactive)

Question: What about the GI50 (HCC 2998) of the same compound?
Answer: > 100 µM (inactive)

Question: And the GI50 (HOP-92)?
Answer: > 100 µM (inactive)

Question: What about the GI50 (Hs-578T) of the same compound?
Answer: > 100 µM (inactive)

Question: What about the GI50 (Malme-3M) of the same compound?
Answer: > 100 µM (inactive)

Question: And the GI50 (NCI-H226)?
Answer: > 100 µM (inactive)

Question: And the GI50 (NCI-H460)?
Answer: > 100 µM (inactive)

Question: What about the GI50 (NCI/ADR-RES) of the same compound?
Answer: 62.2 µM (inactive)

Question: What about the GI50 (OVCAR-4) of the same compound?
Answer: > 100 µM (inactive)

Question: What about the GI50 (OVCAR-5) of the same compound?
Answer: > 100 µM (inactive)

Question: And the GI50 (SF-295)?
Answer: > 100 µM (inactive)

Question: What about the GI50 (SK-MEL-2) of the same compound?
Answer: > 100 µM (inactive)

Question: What about the GI50 (SNB-75) of the same compound?
Answer: > 100 µM (inactive)

Question: And the GI50 (T47D)?
Answer: > 100 µM (inactive)

Question: What about the GI50 (TK-10) of the same compound?
Answer: > 100 µM (inactive)

Question: What about the GI50 (UACC-62) of the same compound?
Answer: > 100 µM (inactive)

Question: What does the source list for CCCC(=O)OCC1OC(n2cc(F)c(=O)[nH]c2=O)CC1O (stereo not given)?
Answer: GI50 (A498): 0.489 µM (active); GI50 (BT-549): 0.929 µM (active); GI50 (CAKI-1): 0.0402 µM (active); GI50 (CCRF-CEM): 0.0356 µM (active); GI50 (DU-145): 0.255 µM (active); GI50 (HCC 2998): 0.00381 µM (active); GI50 (HOP-92): 1.1 µM (active); GI50 (Hs-578T): 3.85 µM (inactive); GI50 (Malme-3M): > 5.06 µM (inactive); GI50 (NCI-H226): > 7.57 µM (inactive); GI50 (NCI-H460): 0.0221 µM (active); GI50 (NCI/ADR-RES): 1.7 µM (inactive); GI50 (OVCAR-4): > 10 µM (inactive); GI50 (OVCAR-5): > 8.11 µM (inactive); GI50 (SF-295): 0.0731 µM (active); GI50 (SK-MEL-2): > 9.64 µM (inactive); GI50 (SNB-75): 0.0871 µM (active); GI50 (T47D): 6.44 µM (inactive); GI50 (TK-10): 1.26 µM (inactive); GI50 (UACC-62): 0.126 µM (active)

Question: How did the GI50 (A498) turn out when O=C(N/N=C/c1ccc([N+](=O)[O-])cc1)Nc1ccc(C(=O)O)cc1 was run?
Answer: 20.2 µM (inactive)

Question: And the GI50 (BT-549)?
Answer: 35.2 µM (inactive)

Question: What about the GI50 (CAKI-1) of the same compound?
Answer: 28.2 µM (inactive)

Question: What about the GI50 (CCRF-CEM) of the same compound?
Answer: 30.6 µM (inactive)

Question: What about the GI50 (DU-145) of the same compound?
Answer: 29.9 µM (inactive)

Question: What about the GI50 (HCC 2998) of the same compound?
Answer: 20.2 µM (inactive)

Question: And the GI50 (HOP-92)?
Answer: 16.9 µM (inactive)

Question: And the GI50 (Hs-578T)?
Answer: 45.4 µM (inactive)

Question: And the GI50 (Malme-3M)?
Answer: 53 µM (inactive)

Question: What about the GI50 (NCI-H226) of the same compound?
Answer: 22.2 µM (inactive)

Question: And the GI50 (NCI-H460)?
Answer: 26.5 µM (inactive)

Question: What about the GI50 (NCI/ADR-RES) of the same compound?
Answer: 27 µM (inactive)

Question: And the GI50 (OVCAR-4)?
Answer: 21.2 µM (inactive)

Question: What about the GI50 (OVCAR-5) of the same compound?
Answer: 40.6 µM (inactive)

Question: And the GI50 (SF-295)?
Answer: 17.4 µM (inactive)

Question: And the GI50 (SK-MEL-2)?
Answer: 25 µM (inactive)

Question: What about the GI50 (SNB-75) of the same compound?
Answer: 46.3 µM (inactive)

Question: And the GI50 (T47D)?
Answer: 11 µM (inactive)

Question: What about the GI50 (TK-10) of the same compound?
Answer: 34.4 µM (inactive)

Question: And the GI50 (UACC-62)?
Answer: 26.4 µM (inactive)

Question: For COc1cc2c(cc1OC)C1=CCC(c3ccccc3)[N+]1(C)CC2 (stereo not given), which GI50 (A498) is on record?
Answer: > 100 µM (inactive)

Question: And the GI50 (BT-549)?
Answer: > 100 µM (inactive)

Question: And the GI50 (CAKI-1)?
Answer: > 100 µM (inactive)

Question: And the GI50 (CCRF-CEM)?
Answer: > 100 µM (inactive)

Question: And the GI50 (DU-145)?
Answer: > 100 µM (inactive)

Question: And the GI50 (HCC 2998)?
Answer: > 100 µM (inactive)

Question: What about the GI50 (HOP-92) of the same compound?
Answer: > 100 µM (inactive)

Question: What about the GI50 (Hs-578T) of the same compound?
Answer: > 100 µM (inactive)

Question: And the GI50 (Malme-3M)?
Answer: 56.9 µM (inactive)

Question: What about the GI50 (NCI-H226) of the same compound?
Answer: > 100 µM (inactive)

Question: What about the GI50 (NCI-H460) of the same compound?
Answer: > 100 µM (inactive)

Question: And the GI50 (NCI/ADR-RES)?
Answer: > 100 µM (inactive)

Question: And the GI50 (OVCAR-4)?
Answer: > 100 µM (inactive)

Question: And the GI50 (OVCAR-5)?
Answer: > 100 µM (inactive)

Question: And the GI50 (SF-295)?
Answer: > 100 µM (inactive)

Question: What about the GI50 (SK-MEL-2) of the same compound?
Answer: > 100 µM (inactive)

Question: What about the GI50 (SNB-75) of the same compound?
Answer: > 100 µM (inactive)

Question: What about the GI50 (T47D) of the same compound?
Answer: > 100 µM (inactive)

Question: What about the GI50 (TK-10) of the same compound?
Answer: > 100 µM (inactive)

Question: What about the GI50 (UACC-62) of the same compound?
Answer: > 100 µM (inactive)
